In one experiment the target is T1, Dihydrofolate reductase (Pneumocystis carinii, UniProt P16184).
T1 sequence (P16184 whole entry): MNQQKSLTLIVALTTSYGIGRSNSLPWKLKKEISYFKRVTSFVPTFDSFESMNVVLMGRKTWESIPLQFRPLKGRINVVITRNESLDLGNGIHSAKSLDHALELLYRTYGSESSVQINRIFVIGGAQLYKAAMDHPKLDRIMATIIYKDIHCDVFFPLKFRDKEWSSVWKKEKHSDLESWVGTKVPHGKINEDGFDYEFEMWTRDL

Another experiment deals with Pneumocystis carinii. Nature of the experiment: Concentration required to inhibit uptake of [3H]4-aminobenozoic acid over 24 hr against Pneumocystis carinii microorganisms extracted from immunocompromized rats. To be noted: Rattus norvegicus.
The target of experiment [1] is T2, Bifunctional dihydrofolate reductase-thymidylate synthase (Toxoplasma gondii, UniProt Q07422).
T2 sequence (Q07422 whole entry): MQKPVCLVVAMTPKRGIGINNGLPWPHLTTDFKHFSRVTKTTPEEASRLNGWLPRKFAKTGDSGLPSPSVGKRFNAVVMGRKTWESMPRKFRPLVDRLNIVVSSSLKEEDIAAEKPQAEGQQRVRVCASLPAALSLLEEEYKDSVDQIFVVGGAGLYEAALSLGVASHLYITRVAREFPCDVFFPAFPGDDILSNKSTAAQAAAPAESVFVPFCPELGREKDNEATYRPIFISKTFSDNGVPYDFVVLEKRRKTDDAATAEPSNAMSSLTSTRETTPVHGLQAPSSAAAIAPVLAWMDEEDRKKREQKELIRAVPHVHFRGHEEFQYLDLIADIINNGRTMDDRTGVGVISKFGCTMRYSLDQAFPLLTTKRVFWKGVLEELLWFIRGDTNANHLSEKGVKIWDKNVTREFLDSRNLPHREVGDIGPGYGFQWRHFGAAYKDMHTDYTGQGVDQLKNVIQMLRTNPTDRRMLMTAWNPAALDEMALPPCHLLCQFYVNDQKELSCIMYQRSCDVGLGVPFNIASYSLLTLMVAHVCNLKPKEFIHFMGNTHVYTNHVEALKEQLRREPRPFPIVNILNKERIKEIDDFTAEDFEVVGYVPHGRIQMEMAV
As to the kind of experiment: Inhibitory concentration against Toxoplasma gondii dihydrofolate reductase.

Experiment [2] can be described thus: Selectivity index measured as the ratio of IC50 for rat liver DHFR to IC50 for Toxoplasma gondii DHFR.

`CCc1nc(N)nc(N)c1-c1ccc(Cl)c(/N=N/N(C)CC)c1` [listing 1 of 2 here] gave an IC50 against Dihydrofolate reductase of 6.6 µM. That is a single-digit micromolar value.

On to `CCc1nc(N)nc(N)c1-c1ccc(Cl)c(/N=N/N(C)Cc2ccccc2)c1`, for which the IC50 on Dihydrofolate reductase is 0.57 µM.

With `CCc1nc(N)nc(N)c1-c1ccc(Cl)c(/N=N/N(C(C)(C)C)C(C)(C)C)c1`, the IC50 against Dihydrofolate reductase was > 11 µM.

In the case of `CCc1nc(N)nc(N)c1-c1ccc(Cl)c(/N=N/N(CCO)Cc2ccccc2)c1`, the figures for the IC50 against Dihydrofolate reductase and in the experiment with Pneumocystis carinii were 0.26 µM and 11.1 µg/mL, respectively.

The compound `CCc1nc(N)nc(N)c1-c1ccc(Cl)c([N+](=O)[O-])c1` displayed an IC50 in experiment [1] of 0.013 µM. Also, the Selectivity index in experiment [2] stood at 1.1.

Take `N=C(N)c1ccc(OCCCCCOc2ccc(C(=N)N)cc2)cc1`: in the experiment with Pneumocystis carinii, the half-maximal inhibitory concentration (IC50) is 2.5 µM.

On to `CCc1nc(N)nc(N)c1-c1ccc(Cl)c(/N=N/N2CCCCC2)c1`, for which the IC50 at Dihydrofolate reductase is 40.4 µM.

Consider `CCc1nc(N)nc(N)c1-c1ccc(Cl)c(/N=N/N(C)CCO)c1`, for which half-maximal inhibition at Dihydrofolate reductase (IC50) required 3.5 µM.

`CCCN(C)/N=N/c1cc(-c2c(N)nc(N)nc2CC)ccc1Cl` [listing 1 of 2 here] yielded an IC50 at Dihydrofolate reductase of 10.2 µM.

As for `CCc1nc(N)nc(N)c1-c1ccc(Cl)c(/N=N/N(CCO)CCO)c1`, the IC50 came to 0.44 µM against Dihydrofolate reductase and 46.6 µg/mL with Pneumocystis carinii.

For the compound `CCc1nc(N)nc(N)c1-c1ccc(Cl)c(/N=N/N(CC)CCO)c1`, inhibition against Dihydrofolate reductase was half-maximal at 11.5 µM (IC50). This counts as double-digit micromolar.

In the case of `CCCN(CCO)/N=N/c1cc(-c2c(N)nc(N)nc2CC)ccc1Cl`, the IC50 against Dihydrofolate reductase turned out to be 2.5 µM.

In the case of `CCc1nc(N)nc(N)c1-c1ccc(Cl)c(/N=N/N(CCOC)CCOC)c1`, the IC50 in experiment [1] came to 8.8 µM; in the experiment on Pneumocystis carinii, 30.5 µg/mL. Besides, the Selectivity index in experiment [2] worked out at 3.

On to `CCc1nc(N)nc(N)c1-c1ccc(N(C)Cc2ccccc2)c([N+](=O)[O-])c1`, for which the IC50 in experiment [1] is 0.091 µM.

Regarding `CCc1nc(N)nc(N)c1-c1ccc(Cl)c(/N=N/N(CCOC(C)=O)Cc2ccccc2)c1`, half-maximal inhibition in the experiment on Pneumocystis carinii (IC50) required 43.9 µg/mL.

In experiment [1], `CCc1nc(N)nc(N)c1-c1ccc(Cl)c([N+]#N)c1` showed an IC50 of 0.023 µM.

Consider `CCCN(C)/N=N/c1cc(-c2c(N)nc(N)nc2CC)ccc1Cl` [listing 2 of 2 here], for which the half-inhibitory concentration (IC50) on Dihydrofolate reductase was determined as 7.6 µM. This lies in the single-digit micromolar range.

`CCc1nc(N)nc(N)c1-c1ccc(Cl)c(/N=N/N(CCO)C(C)(C)C)c1` displayed an IC50 against Dihydrofolate reductase of 4.9 µM.

Take `CCc1nc(N)nc(N)c1-c1ccc(Cl)c(N=[N+]=[N-])c1`: the values for the IC50 (in experiment [1]; against Dihydrofolate reductase) were 0.69 µM and 1.33 µM, respectively. In addition, in experiment [2], the Selectivity index worked out at 0.5.

In turn, `CCc1nc(N)nc(N)c1-c1ccc(Cl)c(/N=N/N2CCc3ccccc3C2)c1` showed an IC50 at Dihydrofolate reductase of 5 µM.

As for `CCc1nc(N)nc(N)c1-c1ccc(Cl)c(/N=C/N(C)C)c1`, the 50% inhibitory concentration (IC50) in experiment [1] came to 1.6 µM; at Dihydrofolate reductase, 10.6 µM.

`CCc1nc(N)nc(N)c1-c1ccc(Cl)c(/N=N/N2CCC(O)CC2)c1` showed an IC50 against Dihydrofolate reductase of 3.3 µM.

Consider `CCc1nc(N)nc(N)c1-c1ccc(Cl)c(/N=N/N2CCCC2)c1`, for which the IC50 at Dihydrofolate reductase was > 11 µM.

As for `CCc1nc(N)nc(N)c1-c1ccc(Cl)c(/N=N/N2CCOCC2)c1`, the results for the IC50 (in experiment [1]; with Pneumocystis carinii) were 0.19 µM and 49.7 µg/mL, respectively.

Regarding `CCc1nc(N)nc(N)c1-c1ccc(Cl)c(/N=N/N(C)CC2OCCO2)c1`, the Selectivity index in experiment [2] was found to be 28. Also, the IC50 at Dihydrofolate reductase was 0.57 µM.

Turning to `CCc1nc(N)nc(N)c1-c1ccc(Cl)c(/N=N/N(C)CC)c1` [listing 2 of 2 here], the IC50 against Dihydrofolate reductase turned out to be 14.1 µM.

Turning to `CCc1nc(N)nc(N)c1-c1ccc(Cl)c(/N=N/N2CCN(C)CC2)c1`, on Dihydrofolate reductase, the IC50 amounted to 8.5 µM. Against the preceding compound, the IC50 is about 1.7-fold lower.

`CCc1nc(N)nc(N)c1-c1ccc(Cl)c(/N=N/N(C)C)c1` [listing 1 of 2 here] gave an IC50 on Dihydrofolate reductase of 6 µM.

On to `CCc1nc(N)nc(N)c1-c1ccc(Cl)c(/N=N/N(C)C)c1` [listing 2 of 2 here], for which the IC50 is 0.31 µM in experiment [1] and 2.8 µM on Dihydrofolate reductase.
